Consider one molecule from US8633005B2, “Isocyclomaltooligosaccharide(s), isocyclomaltooligosaccharide-forming enzyme, their preparation and uses” (Hayashibara Co., Ltd., priority 2004, dated 2014).

Series [1] in a line: Clathrating action of ICM (amount of compound clathrated, gas-chromatography). To be noted: 3-folds molar amount. In kind it is physicochemical. How it is done: ICG5 used in Experiment 15, was dissolved in deionized water to make into an aqueous solution containing 20% (w/v) of ICG5. Twenty milliliters of the aqueous solution was admixed with 3-folds amount, on a molar basis to ICG5, of either of four kinds of short chain alcohols, i.e., methanol, ethanol, propanol, and butanol; four kinds of short chain fatty acids, i.e., acetic acid, propionic acid, n-butyric acid, and n-valeic acid; and four kinds of aromatic compounds, i.e., benzyl alcohol, phenethyl alcohol, 4-phenyl-1-propanol, and o-cresol; and then stirred the mixture to homogeneity for allowing ICG5 to clathrate the compound. Successively, each solution was filtrated, and the resulting filtrate was freeze-dried to remove unclathrated compound. In order to measure the amount of compound clathrated in the freeze-dried product, the amount of each compound in each freeze-dried product was determined by gas-chromatography. Alpha-CD was used as a control and subjected to the similar test.

Excerpt for pancreas α-amylase: (§1) 43, 23-29 (1990), the digestibility of ICM by salivary α-amylase, artificial gastric juice, pancreas amylase, and small intestinal enzymes were investigated using ICG5, used in Experiment 15. […] In Table 18, the digestion (%) means a value calculated by the formula: Digestion (%)=(The amount of reducing saccharides/The amount of the total saccharides)×100 , in respective reaction described above.
Excerpt for small intestinal enzymes: as §1

For `OCC1OC2OC3C(CO)OC(OC4C(CO)OC(OC5C(CO)OC(OCC6OC(OC1C(O)C2O)C(O)C(O)C6O)C(O)C5O)C(O)C4O)C(O)C3O` [ICG5, cyclo{→6)-α-D-glucopyranosyl-(1→4)-α-D-glucopyranosyl-(1→4)-α-D-glucopyranosyl-(1→4)-.α-D-glucopyranosyl-(1→4)α-D-glucopyranosyl-(1→}], the Digestion with pancreas α-amylase is listed as 0%; in the series with small intestinal enzymes it was 0.2%. In addition, the “Amount of compound clathrated” value came out at 225.2 mg/g-freeze-dried product in series [1] (objective compound: 4-Phenyl 1-propanol (aromatic compound)); 82.4 mg/g-freeze-dried product in series [1] (objective compound: Acetic acid (short chain fatty acid)); 61.9 mg/g-freeze-dried product in series [1] (objective compound: Benzyl alcohol (aromatic compound)); 82.7 mg/g-freeze-dried product in series [1] (objective compound: Butanol (short chain alcohol)); 57.6 mg/g-freeze-dried product in series [1] (objective compound: Ethanol (short chain alcohol)); 33.5 mg/g-freeze-dried product in series [1] (objective compound: Methanol (short chain alcohol)). Further, the “Amount of compound clathrated” value in series [1] (objective compound: Phenethyl alcohol (aromatic compound)) is 10.0 mg/g-freeze-dried product; in series [1] (objective compound: Propanol (short chain alcohol)), 69.2 mg/g-freeze-dried product; in series [1] (objective compound: Propionic acid (short chain fatty acid)) it was 91.4 mg/g-freeze-dried product; in series [1] (objective compound: n-Butyric acid (short chain fatty acid)) it was 69.9 mg/g-freeze-dried product; in series [1] (objective compound: n-Valeic acid (short chain fatty acid)), 48.3 mg/g-freeze-dried product; in series [1] (objective compound: o-Cresol (aromatic compound)), 151.5 mg/g-freeze-dried product.
